Assay results reported in patent US20120010206A1, “IMIDAZOLOPYRIDINE COMPOUNDS USEFUL FOR THE TREATMENT OF DEGENERATIVE AND INFLAMMATORY DISEASES” (priority 2006, published 2012).

Columns and labels:
[1] = target: T1, TAK1-TAB1 fusion protein (Homo sapiens, UniProt O43318); experiment: In vitro TAK1 kinase assay (33P-ATP, casein substrate); assay type: biochemical; conditions: semi-quantitative score, at least two independent experiments
T1 construct: purchased Upstate 14-600
T1 sequence (O43318 with tags, fused parts or gaps limits assumed): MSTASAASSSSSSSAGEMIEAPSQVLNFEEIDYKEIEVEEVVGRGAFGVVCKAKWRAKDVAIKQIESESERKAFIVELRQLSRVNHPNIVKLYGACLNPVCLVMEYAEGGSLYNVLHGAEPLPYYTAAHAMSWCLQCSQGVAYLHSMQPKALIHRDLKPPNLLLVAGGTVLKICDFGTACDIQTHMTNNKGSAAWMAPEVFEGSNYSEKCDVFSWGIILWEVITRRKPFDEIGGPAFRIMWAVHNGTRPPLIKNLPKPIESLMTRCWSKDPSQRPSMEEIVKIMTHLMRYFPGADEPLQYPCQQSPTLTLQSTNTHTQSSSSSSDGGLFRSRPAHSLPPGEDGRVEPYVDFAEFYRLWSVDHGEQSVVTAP
In short: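 Radiometric assay with active TAK1-TAB1 fusion protein (0.5 mU), 0.1 mg/mL casein, ATP at 5 µM plus [33P]-γ-ATP, in 10 mM MOPS pH 7.0, 1 mM EDTA. Reactions ran 90 min at 30 °C, were stopped with phosphoric acid and filter-counted; percent inhibition from ≥2 experiments gave semi-quantitative potency scores.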

[2] = tested on: MMP1 expression from activated SFs (RASF); experiment: MMP assay: MMP1 expression (ELISA) by TNF-α-triggered RASFs; assay type: cell-based; conditions: RASF triggered with TNFα, MMP1 ELISA after 48 hrs, semi-quantitative score
In short: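 Rheumatoid arthritis synovial fibroblasts (passage 10–12) were preincubated 90 min with compound in M199 with 1% FBS, then stimulated with TNF-α (10 ng/mL final) or complex trigger (12.5% final) for 48 h. MMP1 in the supernatant was quantified by sandwich luminescence ELISA. Controls were stimulated cells with 0.2% DMSO vehicle and unstimulated cells.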

[3] = tested on: MMP1 expression by complex trigger activated SFs; experiment: MMP assay: MMP1 expression (ELISA) by SFs activated with the 'complex trigger'; assay type: cell-based; conditions: Homo sapiens; SFs activated with supernatant of TNF-α-treated THP-1 cells (complex trigger), 48 hrs, FIG. 3; read-out: IC50 of reduction of MMP1 expression by SFs
Protocol: A 384-well format ELISA for measurement of MMP1 is developed. Various primary antibodies are tested, as well as various ELISA protocols. The following protocol is developed and validated to measure MMP1 levels in SF supernatant in 384 well plates: white Lumitrac 600 384 well plates (Greiner) are coated with 2 μg/mL anti-MMP1 antibody MAB1346 (Chemicon). The antibody is diluted in buffer 40 (1.21 g Tris base (Sigma), 0.58 g NaCl (Calbiochem) and 5 mL 10% NaN3 (Sigma) in 1 L milliQ water and adjusted to pH 8.5). After overnight incubation at 4° C., plates are washed with PBS (80 g NaCl, 2 g KCl (Sigma), 11.5 g Na2HPO4.7H2O and 2 g KH2PO4 in 10 L milliQ; pH 7.4) and blocked with 100 μL/well Casein buffer (2% Casein (VWR International) in PBS). Next day, casein buffer is removed from ELISA plates and replaced by 50 μL/well EC buffer (4 g casein, 2.13 g Na2HPO4 (Sigma), 2 g bovine albumin (Sigma), 0.69 g NaH2PO4.H2O (Sigma), 0.5 g CHAPS (Roche), 23.3 g NaCl, 4 mL 0.5 M EDTA pH 8 (Invitrogen), 5 mL 10% NaN3 in 1 L milliQ and adjusted to pH 7.0). 0.25 mM DTT (Sigma) is added to the thawed sample plates. After removal of the EC buffer, 20 μL of sample is transferred to the ELISA plates. […] Readout is performed on the Luminoscan Ascent Luminometer (Labsystems) with an integration time of 200 msec or with an Envision reader (Perkin Elmer). […]

Compound | IC50 [1] | EC50 [2] | IC50 [3]
O=C1NCc2cc(-c3ccc(Nc4ccc(S(=O)(=O)c5ccccc5)cc4)c4nccn34)ccc21 [Compound 21, 5-(8-(4-(phenylsulfonyl)phenylamino)imi-dazo[1,2-a]pyridin-5-yl)isoindolin-1-one] | 101 to 1000 nM | 101 to 1000 nM | –
C[C@@H]1C[C@H]2[C@@H]3CCC4=CC(=O)C=C[C@]4(C)[C@@]3(F)[C@@H](O)C[C@]2(C)[C@@]1(O)C(=O)CO [dexamethasone] | – | – | ~1 nM
CC(C)N1CCN(c2ccc(Nc3ccc(-c4csc(C(N)=O)c4)n4ccnc34)cc2F)CC1 [Compound 9, 4-{8-[3-Fluoro-4-(4-isopropyl-piperazin-1-yl)-phenylamino]-imidazo[1,2-a]pyridin-5-yl}-thiophene-2-carboxylic acid amide] | 1000 to 3000 nM | 1000 to 3000 nM | –
CS(=O)(=O)c1ccc(Nc2ccc(-c3ccc(C(N)=O)c(F)c3)n3ccnc23)cc1 [Compound 72] | 1000 to 3000 nM | 1000 to 3000 nM | –
FC(F)CN1CCN(c2ccc(Nc3ccc(-c4cn[nH]c4)n4ccnc34)cc2)CC1 [Compound 109, {4-[4-(2,2-Difluoro-ethyl)-piperazin-1-yl]-phenyl}-[5-(1H-pyrazol-4-yl)-imidazo[1,2-a]pyridin-8-yl]-amine] | 1000 to 3000 nM | 101 to 1000 nM | –
CC(C)N1CCN(c2ccc(Nc3ccc(-c4cc[nH]c(=O)c4)n4ccnc34)cc2C(F)(F)F)CC1 [Compound 106, 4-{8-[4-(4-Isopropyl-piperazin-1-yl)-3-trifluoromethyl-phenylamino]-imidazo[1,2-a]pyridin-5-yl}-1H-pyridin-2-one] | > 3000 nM | 101 to 1000 nM | –
CC(C)N1CCN(c2ccc(Nc3ccc(-c4cccc(O)c4)n4ccnc34)cc2)CC1 [Compound 94] | > 3000 nM | > 3000 nM | –
NC(=O)c1ccc(-c2ccc(Nc3ccc(N4CCOCC4)c(F)c3)c3nccn23)cc1F [Compound 67] | > 3000 nM | 101 to 1000 nM | –
c1cn2c(-c3cn[nH]c3)ccc(Nc3ccc(N4CCSCC4)cc3)c2n1 [Compound 111, [5-(1H-Pyrazol-4-yl)-imidazo[1,2-a]pyridin-8-yl]-(4-thiomorpholin-4-yl-phenyl)-amine] | 1000 to 3000 nM | 101 to 1000 nM | –
Cc1cc(CNC(=O)c2ccc(Nc3ccc(-c4ccc5c(c4)CNC5=O)n4ccnc34)cc2)no1 [Compound 37, N-((5-methylisoxazol-3-yl)methyl)-4-(5-(1-oxoisoindolin-5-yl)imidazo[1,2-a]pyridin-8-ylamino)benzamide] | 1000 to 3000 nM | 1000 to 3000 nM | –
CCN1CCN(c2ccc(Nc3ccc(-c4ccc5c(c4)CNC5=O)n4ccnc34)cc2Cl)CC1 [Compound 28, 5-(8-(3-chloro-4-(4-ethylpiperazin-1-yl)phenylamino)imidazo[1,2-a]pyridin-5-yl)isoindolin-1-one] | 101 to 1000 nM | > 3000 nM | –
O=c1cc(-c2ccc(Nc3ccc(N4CCN(C5CCCCC5)CC4)cc3)c3nccn23)cc[nH]1 [Compound 90] | 101 to 1000 nM | 101 to 1000 nM | –
O=c1cc(-c2ccc(Nc3ccc(C4CCN(CC(F)F)CC4)cc3)c3nccn23)cc[nH]1 [Compound 107, 4-(8-{4-[1-(2,2-Difluoro-ethyl)-piperidin-4-yl]-phenylamino)-imidazo[1,2-a]pyridin-5-yl)-1H-pyridin-2-one] | 1000 to 3000 nM | 1000 to 3000 nM | –

Next, values leading:

IC50 [1] | EC50 [2] | IC50 [3] | Compound
101 to 1000 nM | > 3000 nM | – | COc1cc(-c2ccc(Nc3ccc(N4CCN(C(C)C)CC4)cc3)c3nccn23)ccc1O [Compound 95]
101 to 1000 nM | > 3000 nM | – | CN(C)CCCNC(=O)c1ccc(Nc2ccc(-c3ccc4c(c3)CNC4=O)n3ccnc23)cc1 [Compound 50, -(3-(dimethylamino)propyl)-4-(5-(1-oxoisoindolin-5-yl)imidazo[1,2-a]pyridin-8-ylamino)benzamide]
101 to 1000 nM | 101 to 1000 nM | – | CC(C)N1CCN(c2ccc(Nc3ccc(-c4csc(C(N)=O)c4)n4ccnc34)cc2)CC1 [Compound 8, 4-{8-[4-(4-Isopropyl-piperazin-1-yl)-phenylamino]-imidazo[1,2-a]pyridin-5-yl}-thiophene-2-carboxylic acid amide]
101 to 1000 nM | 101 to 1000 nM | – | O=c1cc(-c2ccc(Nc3ccc(N4CCOCC4)cc3)c3nccn23)cc[nH]1 [Compound 68]
101 to 1000 nM | 101 to 1000 nM | – | CCCN1CCN(c2ccc(Nc3ccc(-c4cc[nH]c(=O)c4)n4ccnc34)cc2)CC1 [Compound 84]
< 100 nM | 101 to 1000 nM | – | CC(C)N1CCN(c2ccc(Nc3ccc(-c4cc[nH]c(=O)c4)n4ccnc34)cc2)CC1 [Compound 74]
101 to 1000 nM | 1000 to 3000 nM | – | CS(=O)(=O)c1ccc(Nc2ccc(-c3cc[nH]c(=O)c3)n3ccnc23)cc1 [Compound 64]
101 to 1000 nM | > 3000 nM | – | NC(=O)c1ccc(-c2ccc(Nc3ccc(N4CCN(C5CCC5)CC4)cc3)c3nccn23)cc1 [Compound 78]
101 to 1000 nM | > 3000 nM | – | CN(C)CCNC(=O)c1ccc(Nc2ccc(-c3ccc4c(c3)CNC4=O)n3ccnc23)cc1 [Compound 36, N-(2-(dimethylamino)ethyl)-4-(5-(1-oxoisoindolin-5-yl)imidazo[1,2-a]pyridin-8-ylamino)benzamide]
101 to 1000 nM | > 3000 nM | – | CC(C)N1CCN(c2ccc(Nc3ccc(-c4ccc5c(c4)CNC5=O)n4ccnc34)cc2Cl)CC1 [Compound 29, 5-(8-(3-chloro-4-(4-isopropyl-piperazin-1-yl)phenylamino)imidazo[1,2-a]pyridin-5-yl)isoindolin-1-one]
101 to 1000 nM | > 3000 nM | – | CNC(=O)C1CCN(C(=O)c2ccc(Nc3ccc(-c4ccc5c(c4)CNC5=O)n4ccnc34)cc2)CC1 [Compound 41, N-methyl-1-(4-(5-(1-oxoisoindolin-5-yl)imidazo[1,2-a]pyridin-8-ylamino)benzoyl) piperidine-4-carboxamide]
